In general, Kd refers to a measure of binding affinity in units of concentration. Low values mean a tighter complex, high ones a looser complex.

Each structure is given as a SMILES string.

The assay deals with dA (isolated discontinuous domain A of LAO) (Salmonella enterica, UniProt P02911, DEL114-206). The experiment in a line: biochemical.

The compound `N=C(N)NCCC[C@H](N)C(=O)O` [L-arginine] gave a Kd of 131 µM.

Values taken from publication doi:10.1101/2023.03.18.532921v1 (biorxiv, 2023).
